This is an account of results in ChEMBL document CHEMBL5634093, “Elemental exchange: Bioisosteric replacement of phosphorus by boron in drug design” (Eur J Med Chem, 2023).

SMILES strings stand for the structures. Values after ≈ are worked out from the molar mass of the structure shown.

Experiment [1] in a line: Inhibition of human recombinant catalytic domain PDE4 (152 to 484 residues) by fluorescence polarization assay. In general terms: Fluorescence polarisation rises when a labelled molecule tumbles more slowly, as on binding a larger partner.
Another experiment deals with Trypanosoma cruzi. The experiment can be described thus: Antitrypanosomal activity against Trypanosoma cruzi trypomastigotes assessed as parasite growth inhibition. Type of experiment: functional, organism-based.
Experiment [2] is described as follows: Binding affinity to PDE4 (unknown origin) expressed in Escherichia coli using cAMP as substrate assessed as inhibition constant by fluorescence polarization assay. Details: species or system Homo sapiens.
The test system of a further experiment is Toxoplasma gondii. In words: Antiparasitic activity against Toxoplasma gondii tachyzoites infected in human HeLa cells. Type of experiment: functional, organism-based.
The target of another experiment is Autotaxin (Homo sapiens, UniProt Q13822). In words: Inhibition of ATX (unknown origin).

For `CC(=O)CCCOc1cc(C#N)c(Cl)nc1Oc1ccc2c(c1)COB2O`, the IC50 in experiment [1] is 0.32 nM.

For `COc1cc(C(=O)/C=C/c2ccc3c(c2)B(O)OC3)ccc1N`, in the experiment with Trypanosoma cruzi, the IC50 was determined as 0.01 µg/mL (≈ 0.0323 µM).

Turning to `N#Cc1ccc(Oc2ccc3c(c2)COB3O)cc1C#N`, in experiment [2], the Ki amounted to 65 nM.

`O=C(O)CCc1cccc2c1B(O)OC2`: in the experiment with Toxoplasma gondii, the IC50 is 900 nM.

On to `CC(C)OCCOc1cc(C#N)cnc1Oc1ccc2c(c1)COB2O`, for which, in experiment [1], the IC50 was 3 nM.

At Autotaxin, `O=C1N=C(N2CCN(Cc3ccc(B(O)O)cc3)CC2)S/C1=C/c1ccc(Cl)c(Cl)c1` registered an IC50 of 13 nM.

Turning to `N#Cc1ccc(Oc2ccc3c(c2)COB3O)cc1` [CRISABOROLE], the Ki in experiment [2] is 173 nM.

`O=C(OCc1cc(Cl)cc(Cl)c1)N1CCN(C2CN(C(=O)c3ccc4c(c3)COB4O)C2)CC1` came in with an IC50 against Autotaxin of 130 nM.

One may read the IC50 as the concentration that gives 50% inhibition. By Ki is commonly meant a dissociation constant, usually derived from enzyme kinetics or from competition with a known ligand.
